{"source": "paper PMC10272835", "about": "“Exploration of T cell immune responses by expression of a dominant-negative SHP1 and SHP2” (Frontiers in Immunology, 2023)", "key": {"[1]": {"tested_on": "SHP2", "set-up": "method as in PMID 30972278", "conditions": "following activation; ref [29]; cited from earlier work"}, "[2]": {"tested_on": "SupT1-GD2 cells", "experiment": "Effect of inhibitory ligand expression on GD2 CAR cytotoxicity", "type": "cell-based", "conditions": "ligand expressed on SupT1-GD2, E:T 1:4 and 1:8, 6 days", "description": "(§1) Transduced T cells were depleted of CD56 cells using the EasySep Human CD56 positive selection kit (Stemcell Technologies; 17855) and rested for 24 hours. Transduced cells were co-cultured with target cells at the indicated effector: target (E:T) ratios with target cells remaining constant at the indicated number of target cells/co-culture. At the end of the co-culture period target cells were enumerated by flow cytometry and cytotoxicity calculated as a percentage of the number of target cells recovered from co-cultures with non-transduced (NT) T cells.\nFigure 3 Interaction of dSHP2 with immunoinhibitory T cell receptors. (A-E) Binding of dSHP2 to phosphorylated peptides derived from the endodomains of immunoinhibitory T cell receptors. Plates were coated with phosphorylated or non-phosphorylated peptide at the indicated concentration and the purified, His-tagged SH2 domains of dSHP2 were allowed to bind overnight. Binding was measured through detection of the His tag. (F) Effect of inhibitory ligand expression on target cells on CAR T cytotoxicity. […] Supernatants were harvested from these co-cultures and levels of IFNγ measured by ELISA (I). […] Statistical significance was measured by two-way ANOVA. […]"}, "[3]": {"tested_on": "tumor cell lines (SupT1, Nalm6, Raji, Skov3, CHLA, H446)", "experiment": "Upregulation of endogenous PDL1 by IFNγ", "type": "cell-based", "conditions": "IFNγ 10-400 ng/ml, 24 hours; flow cytometry", "description": "In order to assess the effect of upregulation of endogenous PDL1 on tumour cells, cell lines were incubated for 24 hours with increasing amounts of IFNγ (10, 20, 40, 60, 80, 100, 200, 400 ng/ml) and PDL1 levels were assessed by flow cytometry.\n(§2) SupT1 Nalm6 Raji Skov3 CHLA H446\n(§3) Supplementary Figure 4: Effect of endogenous PDL1: A) Tumor cell lines were treated with […]\n(§4) for PDL1 expression. B-D) The indicated tumor cell lines were treated with 100ng/ml IFNγ for 24 hours or left untreated following which 2x10^5 tumor cells were co-cultured with the indicated CAR T cells at an effector:target ratio of 1:1 for 48 hours (Skov3-GD2) or 96 hours (H446, CHLA255) and tumor cell killing assessed by flow cytometry and normalised to respective co-cultures with non-transduced (NT) T cells (100%). Points represent individual […]"}, "[4]": {"tested_on": "Skov3-GD2, H446, CHLA255 cells", "experiment": "Target cell killing after IFNγ treatment", "type": "cell-based", "conditions": "100ng/ml IFNγ 24 hours; E:T 1:1, 48 hours (Skov3-GD2) or 96 hours (H446, CHLA255)", "description": "as §2, §3, §4"}, "[5]": {"tested_on": "SHP2 (PTPN11) gene", "experiment": "SHP2 gene disruption (ICE)", "type": "cell-based", "conditions": "Cas9 RNP nucleofection of T cells, after 6 days; 4 donors", "description": "(§5) Expression of the SHP2 (PTPN11) gene was disrupted by Cas9-mediated indel formation. For each sgRNA, 2 samples of 5x10^6 PBMCs were nucleofected in […] of P3 buffer (Lonza; V4XP-3024) with 125 pmol of Alt-R Sp HiFi Cas 9 nuclease v3 (IDT; 108210621) complexed with 187.5 pmol of the PTPN11 sgRNA ([…]) or a non-targeting sgRNA ([…]; Synthego) using pulse code EH-115. Complexing of Cas9 and the sgRNA was carried out at ambient temperature for 10 minutes prior to nucleofection. […] PBMCs were transduced with retroviral constructs 24 hours after nucleofection. PBMCs were collected for genotyping, Western blotting and functional assessment 6 days after nucleofection.\nGenomic DNA was extracted from PBMCs using the GenElute Blood Genomic DNA Kit (Sigma; NA2010) according to the manufacturer’s instructions. The sequence flanking the SHP2 sgRNA target site was amplified by PCR from 100 ng of genomic DNA using Q5 DNA polymerase (NEB; M0491L) and the primers, SHP2_forward 5’-[…]-3’ and SHP2_reverse 5’-[…]-3’ (IDT). The PCR products were Sanger sequenced (Source Bioscience) and indel formation and knockout efficiencies determined by ICE (Synthego), comparing SHP2-edited and non-target-edited sequences to an unedited control."}, "[6]": {"tested_on": "SHP2 protein", "experiment": "Western blot of SHP2 after gene disruption", "type": "cell-based", "conditions": "after 6 days, 4 donors", "description": "as §5\nCells were stimulated as indicated then 0.5x10^6 cells were harvested and pelleted at 400xg for 2 minutes. The pellets were washed with ice-cold PBS, centrifuged as before and lysed in 50μl of 1x RIPA buffer (Millipore) supplemented with 1x protease and phosphatase inhibitor (Abcam). The cells were incubated on ice for 15 minutes, vortexed and incubated for further 15 minutes. The lysate was clarified by centrifuging the cells at 13000xg for 10 minutes at 4°C, protein concentration was determined using the BCA Protein assay Kit (Pierce) and stored at -80°C until use. Prior to gel electrophoresis lysates were mixed with NuPAGE™ LDS Sample Buffer (4X) (Invitrogen™) and heated at 95°C for 10 minutes. […]"}, "[7]": {"tested_on": "SupT1-GD2-PDL1 cells", "experiment": "CAR T cytotoxicity, dSHP2 versus SHP2 knock-out", "type": "cell-based", "conditions": "GD2 CAR alongside PD1", "description": "as §1, §5\nSupplementary Figure 5: Comparison of dSHP2 expression with genomic excision of SHP2. […]"}, "[8]": {"tested_on": "SupT1-GD2-PDL1 cells", "experiment": "CAR T cytotoxicity, dSHP2 versus Pembrolizumab", "type": "cell-based", "conditions": "Pembrolizumab 2.5, 5, 10 µg/mL, E:T 1:8, 72 hours, 3-6 replicates", "description": "as §1\n(§6) Supplementary Figure 6: Comparison of dSHP2 with Pembrolizumab. A) T cells expressing RQR8 and the GD2 CAR alone or in combination with PD1 and/or dSHP2 were incubated with 1x10^5 SupT1 cells lacking antigen expression (SupT1-NT) or engineered to express GD2 alone (SupT1-GD2) or in the presence of PDL1 (SupT1-GD2-PDL1) at an effector:target ratio of 1:8 for 72 hours. Pembrolizumab was included in co-cultures with T cells expressing PD1 and the GD2 CAR at the indicated concentrations. Surviving target cells were enumerated and normalized to the respective co-cultures with non-transduced T cells (100%). B) Supernatants from co-cultures in (A) were analyzed for IFNγ by ELISA. C-D) T cells were labelled with Cell Trace Violet and co-cultured with 2x10^5 SupT1 target cells at an E:T ratio of 1:4 for 5 days and CAR T cells enumerated. […]"}, "[9]": {"tested_on": "SupT1-GD2-PDL1 target cells", "experiment": "IFNγ release, dSHP2 versus Pembrolizumab", "type": "cell-based", "conditions": "GD2 CAR; Pembrolizumab 2.5, 5, 10 µg/mL; E:T 1:8, 72 hours", "description": "as §6, with “enumerated. Bars represent the mean of 3-6 biologically independent replicates.” for “enumerated.”"}, "[10]": {"tested_on": "CAR T cells with SupT1-GD2-PDL1 target cells", "experiment": "CAR T proliferation, dSHP2 versus Pembrolizumab", "type": "cell-based", "conditions": "Pembrolizumab 2.5, 5, 10 µg/mL, E:T 1:4, 5 days", "description": "PBMCs were labelled with Cell Trace Violet (CTV) according to manufacturer’s instructions (ThermoFisher Scientific; C34557) and cultured with 0.5x10^5 target cells at 1:1 E:T ratio for 96 hours. Numbers of CD3^+ RQR8+ T cells and CTV MFI were assessed by flow cytometry.\nas §6, with “enumerated. Bars represent the mean of 3-6 biologically independent replicates.” for “enumerated.”"}}}
{"compound": "CC1(N)CCN(c2cnc(-c3cccc(Cl)c3Cl)c(N)n2)CC1", "note": "[SHP099]", "values": [{"measurement": "effect on central memory population, effector molecule expression", "setting": "[1]", "result": "increased central memory population and increased expression of granzyme B, perforin, IFNγ, TNFα and FasL"}, {"measurement": "effect on proliferation or viability", "setting": "[1]", "result": "no effect on proliferation or viability"}]}
{"compound": "CD80: inhibitory ligand of CTLA4 expressed on SupT1-GD2 cells", "values": [{"measurement": "effect of target cell ligand expression on CAR T cytotoxicity", "setting": "[2]", "result": "mild enhancement of CAR T cytotoxicity"}]}
{"compound": "IFNγ: exogenous IFNγ used to upregulate PDL1 on tumor cell lines", "values": [{"measurement": "PDL1 upregulation", "setting": "[3]", "result": "did upregulate PDL1 in some cell lines"}, {"measurement": "target cell killing with exogenous IFNγ", "setting": "[4]", "result": "increased target cell killing"}]}
{"compound": "SHP2-directed sgRNA: PTPN11 sgRNA (GAGACUUCACACUUUCCGUU) complexed with Cas9 nuclease (complexed with Cas9 nuclease, further chemistry not given here)", "values": [{"measurement": "indel formation", "setting": "[5]", "result": "greater than 80%"}, {"measurement": "SHP2 protein level", "setting": "[6]", "result": "significant decrease in SHP2 protein"}, {"measurement": "relief of PDL1-mediated inhibition of CAR T cells", "setting": "[7]", "result": "substantially less"}]}
{"compound": "pembrolizumab: antibody blocking PD1", "values": [{"measurement": "restoration of killing, compared with Pembrolizumab", "setting": "[8]", "result": "comparable effects"}, {"measurement": "restoration of IFNγ release, compared with Pembrolizumab", "setting": "[9]", "result": "slightly greater restoration of IFNγ secretion at the highest concentration"}, {"measurement": "restoration of proliferation, compared with Pembrolizumab", "setting": "[10]", "result": "comparable effects"}]}
